Results on twelve compounds are retold here after US20260007612A1, “Novel Ionizable Cationic Lipids” (Vivasor, Inc., priority 2022, published 2026).

Test system in one data set: not listed separately
Nature of the data set: Lipid nanoparticle characterization (size, PDI, zeta potential, encapsulation efficiency). It is filed as physicochemical. As to conditions: Fresh samples; LNP of named lipid:DSPC:Cholesterol:GM020=50:10:38.5:1.5 (DS-001 25:10:38.5:1.5); 250 μg mRNA. The procedure:
Lipid nanoparticles were prepared with the following compositions: • ALC-0315:DSPC:Cholesterol:GM020=50:10:38.5:1.5 (and buffer) (positive control) • TU-001:DSPC:Cholesterol:GM020=50:10:38.5:1.5 (and buffer) • TU-002:DSPC:Cholesterol:GM020=50:10:38.5:1.5 (and buffer) • TU-003:DSPC:Cholesterol:GM020=50:10:38.5:1.5 (and buffer) • TU-004:DSPC:Cholesterol:GM020=50:10:38.5:1.5 (and buffer) • TU-005:DSPC:Cholesterol:GM020=50:10:38.5:1.5 (and buffer) • TU-006:DSPC:Cholesterol:GM020=50:10:38.5:1.5 (and buffer) • TU-007:DSPC:Cholesterol:GM020=50:10:38.5:1.5 (and buffer) • TU-008:DSPC:Cholesterol:GM020=50:10:38.5:1.5 (and buffer) • TU-009:DSPC:Cholesterol:GM020=50:10:38.5:1.5 (and buffer) • BAE-001:DSPC:Cholesterol:GM020=50:10:38.5:1.5 (and buffer) • BAA-001:DSPC:Cholesterol:GM020=50:10:38.5:1.5 (and buffer) • DS-001:DSPC:Cholesterol:GM020=25:10:38.5:1.5 (and buffer) • KT-001:DSPC:Cholesterol:GM020=50:10:38.5:1.5 (and buffer) • Where buffer is water, Trehalose, Tris Base, sodium chloride. DSPC is 1,2-distearoyl-sn-glycero-3-phosphocholine. GM020 is DMG-PEG (1,2-Dimyristoyl-rac-glycero-3-methylpolyoxyethylene).
Table 1 summarizes the lipid nanoparticle characterization with respect to various parameters including nanoparticle size (Z avg), polydispersity index (PDI), charge (Zeta potential), encapsulation efficiency and yield.
Consider `CCCCCCCCC(CCCCCC)C(=O)OCCCCCCN(CCCCO)CCCCCCOC(=O)C(CCCCCC)CCCCCCCC` (stereo not shown) [ALC-0315, reference compound], for which the “Encapsulation Efficiency” value is on record as 83.16%, the PDI stood at 0.223, the “Z Avg.” value turned out to be 78.67 nm and the “Zeta Potential” value is −4.74 mV.
For the compound `CCCCCCCCC(CCCCCC)C(=O)OCCCCCCN(CCCCO)CCC(=O)OCCCCOC(=O)CCN(CCCCO)CCCCCCOC(=O)C(CCCCCC)CCCCCCCC` (stereo not shown) [BAE-001], the “Encapsulation Efficiency” value stood at 83.32%, the PDI amounted to 0.141, the “Z Avg.” value was found to be 111.7 nm and the “Zeta Potential” value is −0.28 mV.
On the same counts, the results for `CCCCCCCCC(CCCCCC)C(=O)OCCCCCCN(CCCCCCOC(=O)C(CCCCCC)CCCCCCCC)CCCCNC(=O)OCCSSCCOC(=O)NCCCCN(CCCCCCOC(=O)C(CCCCCC)CCCCCCCC)CCCCCCOC(=O)C(CCCCCC)CCCCCCCC` (stereo not shown) [DS-001] are 84.50%, 0.12, 63.0 nm and −3.74 mV.
In the case of `CCCCCCCCCC1(CCCCCC)OCC(CCCCN(CCCCO)CCCCC2COC(CCCCCC)(CCCCCCCCC)O2)O1` (stereo not shown) [KT-001], the “Encapsulation Efficiency” value is given as 80.60%, the PDI was found to be 0.08, the “Z Avg.” value turned out to be 84.7 nm and the “Zeta Potential” value is −3.30 mV.
Turning to `CCCCCCCCC(CCCCCC)C(=O)OCCCN(CCCOC(=O)C(CCCCCC)CCCCCCCC)C(=S)NCCCN1CCOCC1` (stereo not shown) [TU-002], the “Encapsulation Efficiency” value was found to be 80.64%, the PDI is 0.133, the “Z Avg.” value was found to be 76.99 nm and the “Zeta Potential” value is given as −2.55 mV.
Consider `CCCCCCCCC(CCCCCC)C(=O)OCCCN(CCCOC(=O)C(CCCCCC)CCCCCCCC)C(=S)NCCCN1CCCCC1C` (stereo not shown) [TU-003], for which the “Encapsulation Efficiency” value is on record as 90.47%, the PDI came out at 0.23, the “Z Avg.” value was 73.29 nm and the “Zeta Potential” value is −0.56 mV.
On to `CCCCCCCCC(CCCCCC)C(=O)OCCCN(CCCOC(=O)C(CCCCCC)CCCCCCCC)C(=S)NCCCN1CCN(C)CC1` (stereo not shown) [TU-004], for which the “Encapsulation Efficiency” value was found to be 72.53%, the PDI was found to be 0.24, the “Z Avg.” value worked out at 79.77 nm and the “Zeta Potential” value is recorded as −1.27 mV.
In the case of `CCCCCCCCC(CCCCCC)C(=O)OCCCN(CCCOC(=O)C(CCCCCC)CCCCCCCC)C(=S)NCCCN` (stereo not shown) [TU-005], the “Encapsulation Efficiency” value amounted to 97.66%, the PDI stood at 0.282, the “Z Avg.” value was found to be 176.9 nm and the “Zeta Potential” value is on record as −0.842 mV.
With `CCCCCCCCC(CCCCCC)C(=O)OCCCN(CCCOC(=O)C(CCCCCC)CCCCCCCC)C(=S)NCCCN(CC)CC` (stereo not shown) [TU-006], the “Encapsulation Efficiency” value was 81.48%, the PDI turned out to be 0.278, the “Z Avg.” value was found to be 68.84 nm and the “Zeta Potential” value is given as −0.642 mV.
As to `CCCCCCCCC(CCCCCC)C(=O)OCCCN(CCCOC(=O)C(CCCCCC)CCCCCCCC)C(=S)NCCCN(CCC)CCC` (stereo not shown) [TU-007], the “Encapsulation Efficiency” value was determined as 78.96%, the PDI was found to be 0.156, the “Z Avg.” value turned out to be 63.30 nm and the “Zeta Potential” value is listed as −2.68 mV.
For the compound `CCCCCCCCC(CCCCCC)C(=O)OCCCN(CCCOC(=O)C(CCCCCC)CCCCCCCC)C(=S)NCCCNC(C)C` (stereo not shown) [TU-008], the “Encapsulation Efficiency” value is given as 97.75%, the PDI was found to be 0.253, the “Z Avg.” value is listed as 64.64 nm and the “Zeta Potential” value is recorded as −1.07 mV.
Turning to `CCCCCCCCC(CCCCCC)C(=O)OCCCN(CCCOC(=O)C(CCCCCC)CCCCCCCC)C(=S)NCCCN(CCCC)CCCC` (stereo not shown) [TU-009], the “Encapsulation Efficiency” value came to 80.76%, the PDI is reported as 0.188, the “Z Avg.” value turned out to be 64.82 nm and the “Zeta Potential” value is listed as −4.40 mV.

The next data set relates to female Balb/c mice. Nature of the data set: In vivo efficacy of SARS-CoV-2 Spike mRNA in lipid nanoparticle formulation: serum anti-Spike IgG by ELISA. Particulars: FIGS. 1C-D, intramuscular, 28 days following injection.
For the compound `CCCCCCCCCC1(CCCCCC)OCC(CCCCN(CCCCO)CCCCC2COC(CCCCCC)(CCCCCCCCC)O2)O1` (stereo not shown) [KT-001], the “amount of anti-Spike antibody (of SARS-CoV-2) produced in mice” value was “largest amounts”.
